Structures can show the parent of a compound that is named as a salt. Where two headings read alike, the source gives them in different places.
Legend:
Assay type in all cases: cell-based
[1] = system: APOL1; assay: RNA-seq of APOL1 expression in compound-treated primary human hepatocytes; settings: for mrna remaining at 10 µM: Homo sapiens, Hepatocyte, 16 h, read-out: APOL mRNA linear fold change
Experimental: (§1) Human hepatocytes were obtained from two donors from Massachusetts General Hospital, namely MGH54 and MGH63, and one donor from Lonza, namely HUM4111B. Cryopreserved hepatocytes were cultured in plating media for 16 hours, transferred to maintenance media for 4 hours. Cultured on serum-free media for 2 hours, then a compound was added. The hepatocytes were maintained on the serum-free media for 16 hours prior to gene expression analysis. Primary human hepatocytes were stored in the vapor phase of a liquid nitrogen freezer (about −130° C.).
(§2) Human hepatocytes cultured as described above were plated in 24-well format, adding 375,000 cells per well in a volume of 500 ul plating medium. Four hours before treatment, cells were washed with PBS and the medium was changed to either: fresh maintenance medium (complete) or modified maintenance medium.
(§3) Compound stocks were prepared at 1000× final concentration and added in a 2-step dilution to the medium to reduce risk of a compound precipitating out of solution when added to the cells, and to ensure reasonable pipetting volumes. One at a time, each compound was first diluted 10-fold in warm (about 37° C.) modified maintenance medium (initial dilution=ID), mixed by vortexing, and the ID was diluted 100-fold into the cell culture (e.g. 5.1 ul into 1 well of a 24-well plate containing 0.5 mL medium). The plate was mixed by carefully swirling and after all wells were treated and returned to the incubator overnight. If desired, separate plates/wells were treated with vehicle-only controls and/or positive controls. If using multi-well plates, controls were included on each plate. After about 18 hours, cells were harvested for further analysis, e.g., ChIP-seq, RNA-seq, ATAC-seq, etc.
(§4) This protocol is a modified version of the following protocols: MagMAX mirVana Total RNA Isolation Kit User Guide (Applied Biosystems #MAN0011131 Rev B.0), NEBNext Poly(A) mRNA Magnetic Isolation Module (E7490), and NEBNext Ultra Directional RNA Library Prep Kit for Illumina (E7420) (New England Biosystems #E74901).
(§5) The MagMAX mirVana kit instructions (the section titled “Isolate RNA from cells” on pages 14-17) were used for isolation of total RNA from cells in culture. Two hundred μl of Lysis Binding Mix was used per well of the multiwell plate containing adherent cells (usually a 24-well plate).
(§6) For mRNA isolation and library prep, the NEBNext Poly(A) mRNA Magnetic Isolation Module and Directional Prep kit was used. RNA isolated from cells above was quantified, and prepared in […] of each sample in 50 μl of nuclease-free water. This protocol may be run in microfuge tubes or in a 96-well plate.
(§7) All pass filter reads from each sample were mapped against the human genome (assembly GRCh38/GCA_000001405.15 “no alt” analysis set merged with hs38d1/GCA_000786075.2) using two pass mapping via STAR version 2.5.3a (alignment parameters alignIntronMin=20; alignIntronMax=1000000; outFilterMismatchNmax=999; outFilterMismatchNoverLmax=0.05; outFilterType=BySJout; outFilterMultimapNmax=20; alignSJoverhangMin=8; alignSJDBoverhangMin=1; alignMatesGapMax=1000000) (Dobin et al., Bioinformatics (2012) 29(1):15-21). Genomic alignments were converted to transcriptome alignments based on reference transcript annotations from the Human GENCODE Gene Set release 24 (Harrow et al., Genome Res. (2012) 22(9): 1760-1774). Using unique and multimapped transcriptomic alignments, gene-level abundance estimates were computed using RSEM version 1.3.0 (Li and Dewey, BMC Bioinformatics (2011) 12:323) in a strand-aware manner, and including confidence interval sampling calculations, to arrive at posterior mean estimates (PME) of abundances (counts and normalized FPKM—fragments per kilobase of exon per million mapped fragments) from the underlying Bayesian model. Standard QC were applied (read integrity, mapping statistics, library complexity, fragment bias) to remove unsatisfactory samples.

[2] = system: CPOX; assay: RNA-seq of CPOX expression in compound-treated primary human hepatocytes
Experimental: as §1, §2, §3, §4, §5, §6
(§8) Standard QC were applied (read integrity, mapping statistics, library complexity, fragment bias) to remove unsatisfactory samples. […] Log 2 fold change and significance values were computed using PME count data (with replicates explicitly modeled versus pan-experiment controls), median ratio normalized, using maximum likelihood estimation rather than maximum a posteriori, and disabling the use of Cook's distance cutoff when determining acceptable adjusted p-values. […] RNA-seq signals were also normalized by read depth and visualized using the UCSC browser.
(§9) To identify small molecules that modulate target gene expression, primary human hepatocytes were prepared as a monoculture, and at least one small molecule compound was applied to the cells.
(§10) RNA-seq was performed to determine the effects of the compounds on the expression of the target genes in hepatocytes. Fold change was calculated by dividing the level of expression in the cell system that had been perturbed by the level of expression in an unperturbed system. Changes in expression having a p-value ≤0.05 were considered significant.
Significance was defined as an FPKM ≥0.5 a log 2(fold change) ≥0.3, and a q-value of ≤0.05.

[3] = system: SLC37A4; assay: RNA-seq of SLC37A4 expression in compound-treated primary human hepatocytes
Experimental: as §1, §2, §3, §4, §5, §6, §7

[4] = system: UGT1A1; assay: RNA-seq of UGT1A1 expression in compound-treated primary human hepatocytes
Outline: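 Cryopreserved primary human hepatocytes from three donors were plated in 24-well format, then treated with compound diluted from 1000× stocks in serum-free maintenance medium for about 16–18 h. Poly(A) RNA-seq log2 fold change was computed against vehicle/pan-experiment controls. Significance required FPKM ≥1, log2FC ≥0.5 and q ≤0.05.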

[5] = system: FN1; assay: RNA-seq of FN1 expression in compound-treated primary human hepatocytes; settings: perturbed vs unperturbed, significance FPKM ≥1, log 2(fold change) ≥0.5, q-value ≤0.05
Experimental: as §1, §2, §3, §4, §5, §6, §7

[6] = system: ANGPTL3; assay: RNA-seq of ANGPTL3 expression in compound-treated primary human hepatocytes; settings: additional compounds (Table 13), linear fold change
Outline: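 Cryopreserved primary human hepatocytes from three donors, plated at 375,000 cells/well, switched to complete or modified maintenance medium, then dosed with compound (stocks at 1000× final) for about 18 h. Poly(A) mRNA was sequenced directionally, mapped to GRCh38 with STAR, and gene-level abundance (counts, FPKM) estimated with RSEM against GENCODE 24.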

[7] = system: SERPINC1 mRNA; assay: Quantitative PCR of SERPINC1 mRNA in primary human hepatocytes (Lonza Hu4282) treated with compounds; settings: 72 h treatment, HU4282 primary human hepatocytes, relative to DMSO control (FIG. 7)
[8] = system: MECP2 mRNA; assay: MECP2 mRNA in primary human hepatocytes (donor 1, donor 2); settings: human hepatocytes donor-2, average fold change
Experimental: as §1, §2, §3
Samples were amplified using Taqman probes from ThermoFisher.

[9] = system: MECP2 mRNA; assay: MECP2 mRNA in stellate cells; settings: average fold change
[10] = system: LECT2; assay: RNA-seq of LECT2 expression in compound-treated primary human hepatocytes
Experimental: as §1, §2, §3, §4, §5, §6, §8, §9, §10
Significance was defined as an FPKM ≥1, a log 2(fold change) ≥0.5, and a q-value of ≤0.05 for all targets except for CPOX.

## CC1OC2(CS1)CN1CCC2CC1 (stereo not shown) [CPD341_Cevimeline, Cevimeline]
[1]; RNAseq, 10 uM dose (Table 20)
  mrna remaining at 10 µM: 65.5%

## CC[C@@H](CO)NC(=O)[C@@H]1C=C2c3cccc4[nH]cc(c34)C[C@H]2N(C)C1 [CPD388_Methylergonovine, Methylergonovine]
[1]
  mrna remaining at 10 µM: 64.2%

## Clc1ccc(C(c2ccccc2Cl)C(Cl)Cl)cc1 (stereo not shown) [CPD446_Mitotane, Mitotane]
[1]; RNAseq, 10 uM dose (Table 20)
  mrna remaining at 10 µM: 65.5%

## C[C@]12C=CC(=O)C=C1CC[C@@H]1[C@@H]2[C@@H](O)C[C@@]2(C)[C@H]1CC[C@]2(O)C(=O)CO [CPD447_Prednisolone, Prednisolone]
[1]; RNAseq, 10 uM dose (Table 20)
  mrna remaining at 10 µM: 65.5%

## CC(C)C[C@H](NC(=O)[C@H](Cc1ccccc1)NC(=O)c1cnccn1)B(O)O [CPD569_Bortezomib (PS-341), Bortezomib]
[1]; RNAseq, 10 uM dose (Table 20)
  mrna remaining at 10 µM: 63.7%

## [Cl][Co][Cl] [Cobalt chloride]
[2]
  CPOX Fold change (Log2): 0.49 Log2
[3]
  SLC37A4 Fold Change (Log2): 1.09 Log2

## C[C@]12C[C@H](O)[C@H]3[C@@H](CCC4=CC(=O)CC[C@@]43C)[C@@H]1CC[C@@H]2C(=O)CO [Corticosterone]
[2]; RNA-seq, primary human hepatocytes, significance FPKM ≥0.5, log 2(fold change) ≥0.3, q-value ≤0.05
  CPOX Fold change (Log2): 0.36 Log2
[3]
  SLC37A4 Fold Change (Log2): 0.73 Log2
[4]
  UGT1A1 Fold Change (Log2): 0.86 Log2

## C[C@@H](Oc1cc(-c2cnn(C3CCNCC3)c2)cnc1N)c1c(Cl)ccc(F)c1Cl [Crizotinib]
[5]
  FN1 Fold Change (Log2): −1.45 Log2
[1]; RNA-seq, primary human hepatocytes
  APOL1 Fold Change (Log2): −0.56 Log2
[4]
  UGT1A1 Fold Change (Log2): 1.18 Log2

## C[C@@H]1C[C@H]2[C@@H]3CCC4=CC(=O)C=C[C@]4(C)[C@@]3(F)[C@@H](O)C[C@]2(C)[C@@]1(O)C(=O)CO [Dexamethasone]
[3]
  SLC37A4 Fold Change (Log2): 0.66 Log2

## O=C1NC(=O)/C(=C/c2ccc3nccc(-c4ccncc4)c3c2)S1 [GSK1059615]
[1]; RNAseq, 10 uM dose (Table 20)
  APOL mRNA linear fold change: 0.5105
[6]
  ANGPTL3-LINEAR FOLD CHANGE: 0.1856

## COc1ccc(-c2cc3c(C)nc(N)nc3n([C@H]3CC[C@H](OCCO)CC3)c2=O)cn1 [PF-04691502]
[1]; RNAseq, 10 uM dose (Table 20)
  APOL mRNA linear fold change: 0.5141
[6]
  ANGPTL3-LINEAR FOLD CHANGE: 0.4506
[7]
  SERPINC1 mRNA change in response to compound: dose dependent upregulation
[8]; compound 1 uM
  Human hep donor-2 MECP2 (Avg_FC) 1 uM: 1.13
[8]; compound 10 uM
  Human hep donor-2 MECP2 (Avg_FC) 10 uM: 1.88
[9]; compound 1 uM
  Stellate MECP2 (Avg_FC) 1 uM: 1.27
[9]; compound 10 uM
  Stellate MECP2 (Avg_FC) 10 uM: 2.78

## COc1cc(Nc2ncc(F)c(Nc3ccc4c(n3)N(COP(=O)(O)O)C(=O)C(C)(C)O4)n2)cc(OC)c1OC [R788 (fostamatinib disodium hexahydrate), fostamatinib disodium hexahydrate]
[3]
  SLC37A4 Fold Change (Log2): 0.74 Log2
[4]
  UGT1A1 Fold Change (Log2): 0.85 Log2

## CN[C@H]1CC[C@@H](c2ccc(Cl)c(Cl)c2)c2ccccc21 [Sertraline HCl]
[1]; RNAseq, 10 uM dose (Table 20)
  mrna remaining at 10 µM: 64.6%
[6]
  ANGPTL3-LINEAR FOLD CHANGE: 0.3816

## CCN(CC)CCNC(=O)c1c(C)[nH]c(/C=C2\C(=O)Nc3ccc(F)cc32)c1C [Sunitinib]
[1]; RNAseq, 10 uM dose (Table 20)
  mrna remaining at 10 µM: 62%
[6]
  ANGPTL3-LINEAR FOLD CHANGE: 0.3035

## C[C@]12C=CC(=O)C=C1CC[C@@H]1[C@@H]2C(=O)C[C@@]2(C)[C@H]1CC[C@]2(O)C(=O)CO [prednisone]
[2]
  CPOX Fold change (Log2): 0.44 Log2
[3]
  SLC37A4 Fold Change (Log2): 1.18 Log2
[10]
  LECT2 Fold Change (Log2): −0.65 Log2

## IGF-1: IGF-1R activator
[3]
  SLC37A4 Fold Change (Log2): 0.60 Log2

## TNF-a
[3]
  SLC37A4 Fold Change (Log2): 0.64 Log2

— patent US20210161997A1, “TREATING DISEASES VIA TARGETED MODULATION OF GENE SIGNALING NETWORKS” (Camp4 Therapeutics Corporation, priority 2018, published 2021)
